Experiments:
NOX = NOX activity assay in LPS-stimulated glial cultures (lucigenin); type: cell-based, rat; conditions: 10 to 60 μM, 4 h stimulation with LPS 1 μg/mL, p < 0.01
Protocol: (§1) TNFα is considered one of the most important pro-inflammatory cytokines. […] The production of TNFα induced by LPS was reduced by 33% at 10 μM and by 50% at 30 μM. […] To further confirm the anti-inflammatory potential of compound 5c we measured the expression of thre NOX2 enzyme, since this isoform has been widely described as being specific tomicroglial cells. As depicted in Fig. 6F, LPS (1 μg/mL) stimulation of primary glial cultures during 24 h increased the expression of NOX2 by 65.3% (p < 0.01) compared to basal conditions.
(§2) Figure 6 Nitrites (A), TNFα (B), iNOS (C) and NOX activity (E) blockade (D) and NOX2 production (F) by 5c in primary glial cultures stimulated with LPS (1 μg/mL), HO-1 expression induced by this compound after 24 h. […] NOX activity was measured after 4 h co-treatment with LPS and compound 5c. […]
Cells were pre-incubated with increasing concentrations of the compound. […] Then, treatments were removed and NADPH oxidase activity was assessed by measuring O2^− production in the presence of the substrate, NADPH (100 μM) as lucigenin-enhanced chemiluminiscence (5 μM lucigenin). No enzymatic activity was detected in the absence of NADPH. Luminescence was recorded 29 times every 1.8 seconds for each well in a luminometer, and NADPH oxidase activity was expressed as relative light units (RLU)/min normalized to basal value. […]

HO-1 = HO-1 expression in glial cultures (western blot); type: cell-based, rat; conditions: 30 μM, 24 h
Protocol: as §1, §2
After treatment, mixed glial cells were washed with cold PBS and lysed in 100 μl ice-cold lysis buffer (1% Nonident P-40, 10% glycerol, 137 mM NaCl, 20 mM Tris HCl pH 7.5, 1 μg/ml leupeptin, 1 mM phenylmethylsulfonyl fluoride, 20 mM NaF, 1 mM sodium pyrophosphate, and 1 mM Na3VO4). […] Peroxidase-conjugated secondary antibodies (1:10000) were used to detect proteins by enhanced chemiluminescence detected by Advance Western-blotting Detection Kit (GE Healthcare, Barcelona, Spain). […]

COc1cccc(C2C(C#N)=C(N)Oc3n[nH]c(C)c32)c1 (centres unmarked) [Compound 5c, 6-Amino-4-(3-methoxyphenyl)-3-methyl-2,4-dihydropyrano[2,3-c]pyrazole-5-carbonitrile] was tested, and the “Reduction of NOX activity” value (NOX) was “significantly reduce” and the “HO-1 expression increase in glial cultures” value (HO-1) was 2.3 times.
